Like-named read-outs stand apart in the source and are kept apart here.
Experiments:
Tet/GSK-3-beta mice = conditions: cited from earlier work; for tau phosphorylation in the hippocampus: oral, 3 weeks, NP-01139 50 to 100 mg/kg/day, NP-12 100 to 200 mg/kg/day; for clinical signs: prolonged oral treatment
[1] = oral capsules 100, 200, 400 or 800 mg, 14 days; cited from earlier work
[2] = system: Zucker diabetic fatty (ZDF) rats; conditions: cited from earlier work; for glucose tolerance: CS-917 300 mg/kg and/or glyburide 100 mg/kg orally, 90 min before 2 g/kg glucose, 3 h following; for insulin secretion: CS-917 300 mg/kg, glyburide 100 mg/kg orally
patients = conditions: first 6 h after dosing on day 14, versus day before first dose; cited from earlier work
[3] = one oral suspension dose 2.5 to 1000 mg after overnight fast; cited from earlier work
goto-kakizaki (GK) rats = conditions: cited from earlier work
ZDF rats = conditions: cited from earlier work
Female ZDF rats = conditions: 100 mg/kg/day, 14 days; cited from earlier work
[4] = cited from earlier work
gluconeogenesis = conditions: rat hepatocytes, isolated rat kidneys, whole animal studies; cited from earlier work
overnight fasted rats = conditions: 2.5 to 40 mg/kg 1 h before liquid meal 20 kcal/kg; effect at doses over 10 mg/kg; cited from earlier work
cynomolgus monkeys = conditions: cited from earlier work
human hepatocytes [5] = conditions: human primary hepatocytes; read-out: EC50, inhibition of glucose production; cited from earlier work
Male Sprague-Dawley rats = test: Mechanical allodynia induced by spinal nerve ligation (SNL) in rats; type: in vivo, rat; conditions: 30 mg/kg PO, post-SNL day 19, p<0.01 vs. vehicle
Description: Male Sprague-Dawley rats (Hsd:Sprague-Dawley®SD®, Harlan, Indianapolis, Ind., U.S.A.) weighing 223±2 g on Day 14 were housed three per cage. Animals had free access to food and water and were maintained on a 12:12 h light/dark schedule for the entire duration of the study. The animal colony was maintained at 21° C. and 60% humidity. All experiments were conducted in accordance with the International Association for the Study of Pain guidelines and were approved by the University of Minnesota Animal Care and Use Committee.
The Spinal Nerve Ligation (SNL) model was used to induce chronic neuropathic pain. […]
Baseline, post-injury and post-treatment values for non-noxious mechanical sensitivity were evaluated using 8 Semmes-Weinstein filaments (Stoelting, Wood Dale, Ill., USA) with varying stiffness (0.4, 0.7, 1.2, 2.0, 3.6, 5.5, 8.5, and 15 g) according to the up-down method. […] The mean and standard error of the mean (SEM) were determined for each paw in each treatment group. […]
Statistical analyses were conducted using Prism™ 4.01 (GraphPad, San Diego, Calif., USA). Mechanical hypersensitivity of the injured paw was determined by comparing pre-SNL to post-SNL values at Day 14. Data were analyzed using the Wilcoxon test. […] Drug effect was analyzed by comparing post-vehicle and post-drug values using the Friedman test followed by a Dunn's post hoc test. […]

rat hepatocytes = conditions: read-out: EC50, reduction of glucagon-induced glycogenolysis; cited from earlier work
db/db mice [6] = conditions: 60 mg/kg po qd, 9 days; cited from earlier work
db/db mice [7] = conditions: cited from earlier work
healthy conscious rats = conditions: glucagon 10 microg/kg iv; cited from earlier work
human hepatocytes [8] = conditions: read-out: EC50, reduction of glucagon-induced glycogenolysis; cited from earlier work
[9] = single and multiple dose escalation; cited from earlier work
ob/ob mice = conditions: 30 mg/kg po, cited from earlier work
[10] = rats; cited from earlier work
[11] = chronic 21-day study, 10-week old ZDF rats
[12] = 50, 100, 200 or 400 mg qd, 14 days

For `Cn1sc(=O)n(Cc2ccccc2)c1=O` [NP-01139], the “tau phosphorylation in the hippocampus” value (Tet/GSK-3-beta mice) is listed as “dose-dependent significant decrease” and the clinical signs (Tet/GSK-3-beta mice) is listed as “not showing any apparent clinical signs”.

For `CCOC(=O)[C@H](C)NP(=O)(N[C@@H](C)C(=O)OCC)c1ccc(-c2nc(N)sc2CC(C)C)o1` [CS-917], the tolerability [1] is given as “well tolerated with no serious adverse events”, the glucose tolerance [2] is given as “improved glucose tolerance” and the insulin secretion [2] is given as “No stimulation of insulin secretion”. For the same molecule, the blood glucose levels (patients) was “lower blood glucose levels”, the tolerability [3] was “well tolerated with nausea seen at 400 mg and vomiting seen at 800 and 1000 mg” and the plasma glucagons (goto-kakizaki (GK) rats; 40 mg/kg) was “increased”. The plasma glucose levels (goto-kakizaki (GK) rats; 5 to 40 mg/kg, 3 h after administration) was “dose-dependently decreased”, the “hepatic fructose 1,6-bisphosphate and fructose 6-phosphate” value (goto-kakizaki (GK) rats; 20 and 40 mg/kg, 4 h after administration) was “increased” and the glucose lowering (ZDF rats; [11]) was “effectively lowered glucose”. For the same molecule, the “minimum efficacious dose, glucose lowering” value (ZDF rats; [11]) was 30 mg/kg, the oral efficacy (ZDF rats; freely feeding and 6-h fasting ZDF rats, early and advanced disease states) was “good oral efficacy” and the “hyperglycemia (blood glucose)” value (Female ZDF rats) was 166 ± 24 mg/dL. For the same molecule, the “insulin levels, blood lactate, liver glycogen and liver triglycerides” value (Female ZDF rats) was “largely unaffected”, the plasma triglycerides (Female ZDF rats) was “tended to be lowered” and the polydipsia (Female ZDF rats) was 15 ± 6.2 mL/day. The “lactic acid AUC compared with placebo” value ([4]; 400 mg dose) was “increased”, the “absorption, metabolism, clearance” value [4, 12] was “rapidly absorbed, extensively metabolized, rapidly cleared” and the tolerability [4, 12] was “well tolerated with no serious adverse events”. The lactic acid profiles ([4]; other dose groups (50, 100, 200 mg)) was “indifferent from placebo”, the gluconeogenesis (gluconeogenesis) was “inhibit gluconeogenesis” and the “AUC values of plasma glucose levels” value (overnight fasted rats) was “significantly dose dependently decreased”. The plasma glucagons levels (cynomolgus monkeys; 60 mg/kg) was “increased”, the insulin levels (cynomolgus monkeys; 20 to 60 mg/kg, 3 h after administration) was “dose-dependently decreased” and the EC50 (human hepatocytes [5]) was 300 nM.

In the case of `CC1CC(=O)C(CC2C=CC=CC2)C1=O` (centres unmarked) [NP-12], the “tau phosphorylation in the hippocampus” value (Tet/GSK-3-beta mice) is listed as “dose-dependent significant decrease” and the clinical signs (Tet/GSK-3-beta mice) is listed as “not showing any apparent clinical signs”.

For `O=C(N[C@@H](Cc1ccc(F)cc1)C(=O)N1CCC(O)CC1)c1cc2cc(Cl)ncc2[nH]1` [PSN-357], the “mechanical allodynia (von Frey, up-down method)” value (Male Sprague-Dawley rats) is given as “reduced mechanical allodynia”, the EC50 (rat hepatocytes) is given as 1900 nM and the hyperglycemia (db/db mice [6]) is given as “prevented hyperglycemia”. The “increase in liver glycogen” value (db/db mice [6]) was 57%, the “muscle glycogen, plasma insulin or alanine aminotransferase” value (db/db mice [6]) was “no changes” and the “heart and skeletal muscle glycogen” value (db/db mice [7]; after 5 h) was “remained unaffected”. The liver glycogen (db/db mice [7]; after 5 h) was “increase in liver glycogen”, the “reduction of blood glucose” value (db/db mice [7]; maintained after 5 h) was 35% and the “minimum effective dose, inhibition of glucagon-stimulated elevation of blood glucose” value (healthy conscious rats) was 3 mg/kg. The EC50 (human hepatocytes [8]) was 1100 nM, the safety and tolerability [9] was “safe and well tolerated” and the blood glucose levels (ob/ob mice; 90 to 210 minutes post administration) was “reduced blood glucose levels”. For the same molecule, the “increase in liver glycogen” value (ob/ob mice; after 5 h) was 66% and the t1/2 [10] was 4 h.

In the case of `COc1ccc(Cl)cc1C(=O)NCCc1ccc(S(=O)(=O)NC(=O)NC2CCCCC2)cc1` [glyburide], the glucose tolerance [2] is listed as “improved glucose tolerance” and the insulin secretion [2] is listed as “positive insulin secretory response”.

From patent publication US20100222304A1, “Methods of Treating Neuropathic Pain by Modulation of Glycogenolysis or Glycolysis” (priority 2006, published 2010)
